Laboratory results taken from patent publication US20220062258A1, “Heterocyclic derivatives” (Merck Patent GmbH, priority 2019, published 2022).

System: HUVEC primary endothelial cells
Assay: HUVEC proliferation assay (CyQUANT Direct)
Type: cell-based
Settings: Homo sapiens, 72 h, 3 days incubation
Experimental: HUVEC Proliferation Assay
Proliferation of HUVEC primary endothelial cells was used as cell-based mechanistical assay.^25 Applying the CyQUANT@ Direct Cell Proliferation Assay (Invitrogen C35011) which is based on a cell-permeant fluorescent DNA-binding dye, DNA content is used as a direct measure for cell number. Pooled HUVEC cells (Promocell C-12203) are cultivated in the medium supplied by Promocell (Cat No C-22020) for maximum 4 passages. For the assay 500 cells/well are seeded into black 384-well culture plates with clear bottom in 70 μl culture medium and incubated for 6 hours at 37° C., 5% CO2. 10 μl prediluted test compounds are added and cells incubated for 3 days at 37° C., 5% CO2 before measurement of DNA content. CyQUANT detection reagent is prepared according to the manufacturers protocol, 20 μl/well added and incubated at 37° C., 5% CO2 for at least 1 h before measurement of fluorescence at Envision multimode reader (Perkin-Elmer, Waltham) with excitation 480 nm and emission 535 nm (bottom read mode). The assay is performed as dose response with 10 compound dilutions. Inhibitory values (IC50) were determined using the program ASSAY ANALYZER® from GeneData (Basel, Switzerland).

Row | Structure (SMILES) | IC50
1 | O=C1CCC(N2C(=O)c3ccc(NCCOCCOCCOCCN4CCN(C(=O)c5cc6cc(N7CC[C@](O)(C(=O)NCc8cc(F)cc(F)c8)C7=O)ccc6[nH]5)CC4)cc3C2=O)C(=O)N1 (stereo partly drawn) [Compound A48, (3S)—N-[(3,5-difluorophenyl)methyl]-1-{2-[4-(2-{2-[2-(2-{[2-(2,6-dioxopiperidin-3-yl)-1,3-dioxo-2,3-dihydro-1H-isoindol-5-yl]amino}ethoxy)ethoxy]ethoxy}ethyl)piperazine-1-carbonyl]-1H-indol-5-yl}-3-hydroxy-2-oxopyrrolidine-3-carboxamide] | 85 nM
2 | O=C1CCC(N2C(=O)c3ccc(NCCOCCOCCN4CCC5(CC4)CCN(C(=O)c4cc6cc(N7CC[C@](O)(C(=O)NCc8cc(F)cc(F)c8)C7=O)ccc6[nH]4)CC5)cc3C2=O)C(=O)N1 (stereo partly drawn) [Compound A49, (3S)—N-[(3,5-difluorophenyl)methyl]-1-[2-(9-{2-[2-(2-{[2-(2,6-dioxopiperidin-3-yl)-1,3-dioxo-2,3-dihydro-1H-isoindol-5-yl]amino}ethoxy)ethoxy]ethyl}-3,9-diazaspiro[5.5]undecane-3-carbonyl)-1H-indol-5-yl]-3-hydroxy-2-oxopyrrolidine-3-carboxamide] | 51 nM
3 | O=C1CCC(N2C(=O)c3ccc(NC(=O)CCCCCCCCCCCCCNC(=O)c4cc5cc(N6CC[C@](O)(C(=O)NCc7cc(F)cc(F)c7)C6=O)ccc5[nH]4)cc3C2=O)C(=O)N1 (stereo partly drawn) [Compound A50, (3S)—N-[(3,5-difluorophenyl)methyl]-1-{2-[(13-{[2-(2,6-dioxopiperidin-3-yl)-1,3-dioxo-2,3-dihydro-1H-isoindol-5-yl]carbamoyl}tridecyl)carbamoyl]-1H-indol-5-yl}-3-hydroxy-2-oxopyrrolidine-3-carboxamide] | 180 nM
4 | O=C1CCC(N2C(=O)c3cccc(NCCOCCOCCOCCOCCNC(=O)c4cc5cc(N6CC[C@](O)(C(=O)NCc7cc(F)cc(F)c7)C6=O)ccc5[nH]4)c3C2=O)C(=O)N1 (stereo partly drawn) [Compound A44, 5-[(3S)-3-{[(3,5-difluorophenyl)methyl]carbamoyl}-3-hydroxy-2-oxopyrrolidin-1-yl]-N-(14-{[2-(2,6-dioxopiperidin-3-yl)-1,3-dioxo-2,3-dihydro-1H-isoindol-4-yl]amino}-3,6,9,12-tetraoxatetradecan-1-yl)-1H-indole-2-carboxamide] | 7000 nM
5 | O=C1CCC(N2C(=O)c3ccc(NCCOCCOCCOCCNC(=O)c4cc5cc(N6CC[C@](O)(C(=O)NCc7cc(F)cc(F)c7)C6=O)ccc5[nH]4)cc3C2=O)C(=O)N1 (stereo partly drawn) [Compound A42, 5-[(3S)-3-{[(3,5-difluorophenyl)methyl]carbamoyl}-3-hydroxy-2-oxopyrrolidin-1-yl]-N-(2-{2-[2-(2-{[2-(2,6-dioxopiperidin-3-yl)-1,3-dioxo-2,3-dihydro-1H-isoindol-5-yl]amino}ethoxy)ethoxy]ethoxy}ethyl)-1H-indole-2-carboxamide] | 4600 nM
6 | O=C1CCC(N2C(=O)c3ccc(NCCCCOCCCCOCCCCNC(=O)c4cc5cc(N6CC[C@](O)(C(=O)NCc7cc(F)cc(F)c7)C6=O)ccc5[nH]4)cc3C2=O)C(=O)N1 (stereo partly drawn) [Compound A51, 5-[(3S)-3-{[(3,5-difluorophenyl)methyl]carbamoyl}-3-hydroxy-2-oxopyrrolidin-1-yl]-N-{4-[4-(4-{[2-(2,6-dioxopiperidin-3-yl)-1,3-dioxo-2,3-dihydro-1H-isoindol-5-yl]amino}butoxy)butoxy]butyl}-1H-indole-2-carboxamide] | 400 nM
7 | O=C1CCC(N2C(=O)c3cccc(NC(=O)CCCCCCCCCCCCCCCCNC(=O)c4cc5cc(N6CC[C@](O)(C(=O)NCc7cc(F)cc(F)c7)C6=O)ccc5[nH]4)c3C2=O)C(=O)N1 (stereo partly drawn) [Compound A57, (3S)—N-[(3,5-difluorophenyl)methyl]-1-{2-[(16-{[2-(2,6-dioxopiperidin-3-yl)-1,3-dioxo-2,3-dihydro-1H-isoindol-4-yl]carbamoyl}hexadecyl)carbamoyl]-1H-indol-5-yl}-3-hydroxy-2-oxopyrrolidine-3-carboxamide] | > 30000 nM
8 | O=C1CCC(N2C(=O)c3ccc(NC(=O)COCCOCCOCCOCCOCCNC(=O)c4cc5cc(N6CC[C@](O)(C(=O)NCc7cc(F)cc(F)c7)C6=O)ccc5[nH]4)cc3C2=O)C(=O)N1 (stereo partly drawn) [Compound A55, (3S)—N-[(3,5-difluorophenyl)methyl]-1-{2-[(1-{[2-(2,6-dioxopiperidin-3-yl)-1,3-dioxo-2,3-dihydro-1H-isoindol-5-yl]carbamoyl}-2,5,8,11,14-pentaoxahexadecan-16-yl)carbamoyl]-1H-indol-5-yl}-3-hydroxy-2-oxopyrrolidine-3-carboxamide] | > 30000 nM
9 | O=C1CCC(N2C(=O)c3cccc(C#CCOCCOCCOCCOCCOCCNC(=O)c4cc5cc(N6CC[C@](O)(C(=O)NCc7cc(F)cc(F)c7)C6=O)ccc5[nH]4)c3C2=O)C(=O)N1 (stereo partly drawn) [Compound A46, 5-[(3S)-3-{[(3,5-difluorophenyl)methyl]carbamoyl}-3-hydroxy-2-oxopyrrolidin-1-yl]-N-{18-[2-(2,6-dioxopiperidin-3-yl)-1,3-dioxo-2,3-dihydro-1H-isoindol-4-yl]-3,6,9,12,15-pentaoxaoctadec-17-yn-1-yl}-1H-indole-2-carboxamide] | > 30000 nM
10 | CN(CCOCCOCCOCCOCCN(C)c1ccc2c(c1)C(=O)N(C1CCC(=O)NC1=O)C2=O)C(=O)c1cc2cc(N3CC[C@](O)(C(=O)NCc4cc(F)cc(F)c4)C3=O)ccc2[nH]1 (stereo partly drawn) [Compound A47, 5-[(3S)-3-{[(3,5-difluorophenyl)methyl]carbamoyl}-3-hydroxy-2-oxopyrrolidin-1-yl]-N-{2-[2-(2,6-dioxopiperidin-3-yl)-1,3-dioxo-2,3-dihydro-1H-isoindol-5-yl]-5,8,11,14-tetraoxa-2-azahexadecan-16-yl}-N-methyl-1H-indole-2-carboxamide] | 240 nM
11 | O=C1CCC(N2C(=O)c3ccc(C#CCOCCOCCOCCOCCNC(=O)c4cc5cc(N6CC[C@](O)(C(=O)NCc7cc(F)cc(F)c7)C6=O)ccc5[nH]4)cc3C2=O)C(=O)N1 (stereo partly drawn) [Compound A43, 5-[(3S)-3-{[(3,5-difluorophenyl)methyl]carbamoyl}-3-hydroxy-2-oxopyrrolidin-1-yl]-N-{15-[2-(2,6-dioxopiperidin-3-yl)-1,3-dioxo-2,3-dihydro-1H-isoindol-5-yl]-3,6,9,12-tetraoxapentadec-14-yn-1-yl}-1H-indole-2-carboxamide] | 7100 nM
12 | CN(CCOCCOCCOCCOCCOCCN(C)c1cccc2c1C(=O)N(C1CCC(=O)NC1=O)C2=O)C(=O)c1cc2cc(N3CC[C@](O)(C(=O)NCc4cc(F)cc(F)c4)C3=O)ccc2[nH]1 (stereo partly drawn) [Compound A45, 5-[(3S)-3-{[(3,5-difluorophenyl)methyl]carbamoyl}-3-hydroxy-2-oxopyrrolidin-1-yl]-N-{2-[2-(2,6-dioxopiperidin-3-yl)-1,3-dioxo-2,3-dihydro-1H-isoindol-4-yl]-5,8,11,14,17-pentaoxa-2-azanonadecan-19-yl}-N-methyl-1H-indole-2-carboxamide] | 610 nM
13 | O=C1CCC(N2C(=O)c3cccc(NCCOCCOCCOCCOCCN4CCN(C(=O)c5cc6cc(N7CC[C@](O)(C(=O)NCc8cc(F)cc(F)c8)C7=O)ccc6[nH]5)CC4)c3C2=O)C(=O)N1 (stereo partly drawn) [Compound A56, (3S)—N-[(3,5-difluorophenyl)methyl]-1-{2-[4-(14-{[2-(2,6-dioxopiperidin-3-yl)-1,3-dioxo-2,3-dihydro-1H-isoindol-4-yl]amino}-3,6,9,12-tetraoxatetradecan-1-yl)piperazine-1-carbonyl]-1H-indol-5-yl}-3-hydroxy-2-oxopyrrolidine-3-carboxamide] | 120 nM
